According to US20250197407A1 (Jazz Pharmaceuticals Ireland Limited, priority 2022, published 2025):

Target: SOS1/KRAS WT (Homo sapiens (Human), UniProt Q07889)
Assay: SOS1/KRAS WT HTRF binding assay (FRET-based protein-protein interaction)
Details: inhibition of His6-SOS1 (aa564-1049, 40 nM) binding to GST-KRAS-WT (aa1-188, 40 nM); at least two independent replicates; read-out: SOS1/KRAS WT HTRF Binding assay pIC50 (converted)
Source text: The capacity of compounds to inhibit SOS1 binding to KRAS-WT (wild-type) was quantified using a FRET-based protein-protein interaction assay. The assay is based on the transfer of energy between two fluorophores, a donor and an acceptor, when in close proximity. In this instance, the donor is a Europium-conjugated α-GST antibody that binds to GST-tagged KRAS-WT, and the acceptor is an XL665-conjugated α-His 6 antibody that binds to His 6-tagged SOS1. Binding of SOS1 to KRAS-WT results in an increased fluorescent signal at emission wavelength of 665 nm which can be detected on the EnVision plate reader. Compounds that inhibit binding will reduce the 665 nm signal emitted. Recombinant KRAS-WT protein (40 nM; Human KRAS, aa1-188 recombinant protein with N-terminal GST-tag) and SOS1 protein (40 nM; Human SOS1 exchange domain, aa564-1049 with N-terminal 6His-tag) were mixed together in assay buffer (5 mM HEPES pH7.3, 150 mM NaCl, 10 mM EDTA, 5 mM MgCl2, 0.05% BSA, 0.0025% NP-40, 1 mM DTT and 100 mM KF) and incubated at room temperature with a dose response of compound in a 384-well low volume white plate and a final volume of 5 ul. After a 60 minute incubation, 5 ul of 4 nM anti-GST-Eu(K) (Cisbio, France) combined with 20 nM anti-6His-XL665 (Cisbio, France), diluted in assay buffer, was added to the plate. Following a further 4 hr incubation at room temperature, time-resolved fluorescence was measured on the EnVision plate reader. DMSO (0.05%) and 10 μM reference compound were used to generate the Max and Min assay signals, respectively. Data was analysed using a four-parameter logistic model to calculate IC50 values, with at least two independent replicates performed for each compound.
Data was analyzed using a four-parameter logistic model to calculate IC50 values, with at least two independent replicates performed for each compound.

Sequence of SOS1/KRAS WT (Q07889 564-1049): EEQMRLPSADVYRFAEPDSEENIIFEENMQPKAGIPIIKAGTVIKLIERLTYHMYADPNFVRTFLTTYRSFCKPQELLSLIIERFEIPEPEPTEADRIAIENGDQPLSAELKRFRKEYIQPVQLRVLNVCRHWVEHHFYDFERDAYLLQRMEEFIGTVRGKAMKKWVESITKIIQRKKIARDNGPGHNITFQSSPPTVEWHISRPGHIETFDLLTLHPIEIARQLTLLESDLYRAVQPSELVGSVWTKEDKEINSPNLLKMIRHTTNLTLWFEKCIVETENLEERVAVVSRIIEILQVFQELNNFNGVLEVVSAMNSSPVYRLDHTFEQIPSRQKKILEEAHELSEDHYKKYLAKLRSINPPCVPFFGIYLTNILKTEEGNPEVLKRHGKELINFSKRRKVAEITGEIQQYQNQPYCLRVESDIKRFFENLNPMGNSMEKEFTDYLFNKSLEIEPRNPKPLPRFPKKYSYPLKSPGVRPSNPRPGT

IC50 [nM] | SMILES
6.17 | Cc1c([C@@H](C)Nc2nnc(C)c3cc4c(cc23)n(C)c(=O)n4C)cccc1C(F)(F)F [Compound 54, 1,3,8-trimethyl-5-[[(1R)-1-[2-methyl-3-(trifluoromethyl)phenyl]ethyl]amino] imidazo[4,5-g]phthalazin-2-one]
11.5 | Cc1nnc(N[C@H](C)c2cccc(C(F)(F)F)c2)c2cc3c(cc12)n(C1CC1)c(=O)n3C [Compound 56, 1-cyclopropyl-3,8-dimethyl-5-[[(1R)-1-[3-(trifluoromethyl)phenyl]ethyl]amino] imidazo[4,5-g]phthalazin-2-one]
93.3 | Cc1nnc(N[C@H](C)c2ccc3cn[nH]c3c2)c2cc3c(cc12)n(C)c(=O)n3C [Compound 57, 5-[[(1R)-1-(1H-indazol-6-yl)ethyl]amino]-1,3,8-trimethyl-imidazo[4,5-g]phthalazin-2-one]
7.94 | Cc1nnc(N[C@H](C)c2cccc(C(F)(F)C(C)(C)O)c2F)c2cc3c(cc12)C(C)(C)C(=O)N3C1CC1 [Compound 59, 1-cyclopropyl-3,3,5-trimethyl-8-[[(1R)-1-[3-(1,1-difluoro-2-hydroxy-2-methyl-propyl)-2-fluoro-phenyl]ethyl]amino]pyrrolo[2,3-g]phthalazin-2-one]
209 | Cc1nnc(N[C@H](C)c2cccc3[nH]ncc23)c2cc3c(cc12)n(C)c(=O)n3C [Compound 60, 5-[[(1R)-1-(1H-indazol-4-yl)ethyl]amino]-1,3,8-trimethyl-imidazo[4,5-g]phthalazin-2-one]
10.7 | Cc1nnc(N[C@H](C)c2cccc(C(F)F)c2F)c2cc3c(cc12)C(C)(C)C(=O)N3C1CC1 [Compound 62, 1-cyclopropyl-3,3,5-trimethyl-8-[[(1R)-1-[3-(difluoromethyl)-2-fluoro-phenyl]ethyl]amino]pyrrolo[2,3-g]phthalazin-2-one]
7.41 | Cc1nnc(N[C@H](C)c2cccc(C(F)(F)C(C)(C)O)c2)c2cc3c(cc12)n(C)c(=O)n3C1CC1 [Compound 67, 3-cyclopropyl-1,8-dimethyl-5-[[(1R)-1-[3-(1,1-difluoro-2-hydroxy-2-methyl-propyl)phenyl]ethyl]amino]imidazo [4,5-g]phthalazin-2-one]
9.55 | Cc1c([C@@H](C)Nc2nnc(C)c3cc4c(cc23)n(C2CC2)c(=O)n4C)cccc1C(F)(F)CO [Compound 68, 3-cyclopropyl-1,8-dimethyl-5-[[(1R)-1-[3-(1,1-difluoro-2-hydroxy-ethyl)-2-methyl-phenyl]ethyl]amino]imidazo[4,5-g]phthalazin-2-one]
6.92 | Cc1nnc(N[C@H](C)c2cccc(C(F)(F)C(C)(C)O)c2F)c2cc3c(cc12)C1(CCOCC1)C(=O)N3C [Compound 73, 1,5-dimethyl-8-[[(1R)-1-[3-(1,1-difluoro-2-hydroxy-2-methyl-propyl)-2-fluoro-phenyl]ethyl]amino]spiro[pyrrolo [2,3-g]phthalazine-3,4′-tetrahydropyran]-2-one]
8.71 | COC1(C)C(=O)N(C)c2cc3c(N[C@H](C)c4cccc(C(F)(F)C(C)(C)O)c4F)nnc(C)c3cc21 (stereo partly drawn) [Compound 75, 3-methoxy-1,3,5-trimethyl-8-[[(1R)-1-[3-(1,1-difluoro-2-hydroxy-2-methyl-propyl)-2-fluoro-phenyl]ethyl]amino]pyrrolo[2,3-g]phthalazin-2-one]
6.03 | Cc1c([C@@H](C)Nc2nnc(C)c3cc4c(cc23)n(C2(C)CC2)c(=O)n4C)cccc1C(F)(F)CO [Compound 76, 1,8-dimethyl-3-(1-methylcyclopropyl)-5-[[(1R)-1-[3-(1,1-difluoro-2-hydroxy-ethyl)-2-methyl-phenyl]ethyl]amino]imidazo[4,5-g]phthalazin-2-one]
11.2 | Cc1nnc(N[C@H](C)c2cccc(C(F)(F)C(C)(C)O)c2)c2cc3c(cc12)C(C)(C)C(=O)N3C [Compound 77, 1,3,3,5-tetramethyl-8-[[(1R)-1-[3-(1,1-difluoro-2-hydroxy-2-methyl-propyl)phenyl]ethyl]amino]pyrrolo [2,3-g]phthalazin-2-one]
6.76 | Cc1c([C@@H](C)Nc2nnc(C)c3cc4c(cc23)N(C(C)C)C(=O)C4(C)C)cccc1C(F)(F)CO [Compound 79, 1-isopropyl-3,3,5-trimethyl-8-[[(1R)-1-[3-(1,1-difluoro-2-hydroxy-ethyl)-2-methyl-phenyl]ethyl]amino]pyrrolo[2,3-g]phthalazin-2-one]

More lines, now with the values behind:

SMILES | IC50 [nM]
Cc1nnc(N[C@H](C)c2cccc(C(F)(F)CN)c2F)c2cc3c(cc12)n(C)c(=O)n3C(C)(C)C [Compound 53, 3-tert-butyl-1,8-dimethyl-5-[[(1R)-1-[3-(2-amino-1,1-difluoro-ethyl)-2-fluoro-phenyl]ethyl]amino]imidazo[4,5-g]phthalazin-2-one] | 5.01
COc1c([C@@H](C)Nc2nnc(C)c3cc4c(cc23)n(C)c(=O)n4C)cccc1C(F)(F)F [Compound 55, 5-[[(1R)-1-[2-methoxy-3-(trifluoromethyl)phenyl]ethyl]amino]-1,3,8-trimethyl-imidazo[4,5-g]phthalazin-2-one] | 57.5
Cc1c([C@@H](C)Nc2nnc(C)c3cc4c(cc23)n(C2CC2)c(=O)n4C)cccc1C(F)(F)F [Compound 58] | 6.61
Cc1nnc(N[C@H](C)c2cccc3c(F)cn(C)c23)c2cc3c(cc12)n(C)c(=O)n3C [Compound 61, 1,3,8-trimethyl-5-[[(1R)-1-(3-fluoro-1-methyl-indol-7-yl)ethyl]amino]imidazo[4,5-g]phthalazin-2-one] | 100
CNCC(F)(F)c1cccc([C@@H](C)Nc2nnc(C)c3cc4c(cc23)n(C)c(=O)n4C)c1F [Compound 63, 1,3,8-trimethyl-5-[[(1R)-1-[3-[1,1-difluoro-2-(methylamino)ethyl]-2-fluoro-phenyl]ethyl]amino]imidazo[4,5-g]phthalazin-2-one] | 15.8
Cc1nnc(N[C@H](C)c2cccc(C(F)(F)C(C)(C)O)c2)c2cc3c(cc12)n(C)c(=O)n3C [Compound 64, 1,3,8-trimethyl-5-[[(1R)-1-[3-(1,1-difluoro-2-hydroxy-2-methyl-propyl)phenyl]ethyl]amino]imidazo [4,5-g]phthalazin-2-one] | 8.13
Cc1nnc(N[C@H](C)c2cccc(C(F)(F)C(C)(C)O)c2)c2cc3c(cc12)C(C)(C)C(=O)N3C1CC1 [Compound 65, 1-cyclopropyl-3,3,5-trimethyl-8-[[(1R)-1-[3-(1,1-difluoro-2-hydroxy-2-methyl-propyl)phenyl]ethyl]amino]pyrrolo [2,3-g]phthalazin-2-one] | 9.77
Cc1c([C@@H](C)Nc2nnc(C)c3cc4c(cc23)N(C2CC2)C(=O)C4(C)C)cccc1C(F)(F)CO [Compound 66, 1-cyclopropyl-3,3,5-trimethyl-8-[[(1R)-1-[3-(1,1-difluoro-2-hydroxy-ethyl)-2-methyl-phenyl]ethyl]amino]pyrrolo[2,3-g]phthalazin-2-one] | 8.51
Cc1c([C@@H](C)Nc2nnc(C)c3cc4c(cc23)N(C)C(=O)C4(C)C)cccc1C(F)(F)CO [Compound 69, 1,3,3,5-tetramethyl-8-[[(1R)-1-[3-(1,1-difluoro-2-hydroxy-ethyl)-2-methyl-phenyl]ethyl]amino]pyrrolo[2,3-g]phthalazin-2-one] | 9.12
Cc1nnc(N[C@H](C)c2cccc(C(F)(F)CO)c2)c2cc3c(cc12)n(C)c(=O)n3C1CC1 [Compound 70, 3-cyclopropyl-1,8-dimethyl-5-[[(1R)-1-[3-(1,1-difluoro-2-hydroxy-ethyl)phenyl]ethyl]amino]imidazo [4,5-g]phthalazin-2-one] | 11.5
Cc1c([C@@H](C)Nc2nnc(C)c3cc4c(cc23)N(C)C(=O)C42CCOCC2)cccc1C(F)(F)CO [Compound 72, 1,5-dimethyl-8-[[(1R)-1-[3-(1,1-difluoro-2-hydroxy-ethyl)-2-methyl-phenyl]ethyl]amino]spiro[pyrrolo [2,3-g]phthalazine-3,4′-tetrahydropyran]-2-one] | 9.77
Cc1nnc(N[C@H](C)c2cccc(C(F)(F)F)n2)c2cc3c(cc12)n(C)c(=O)n3C [Compound 74, 1,3,8-trimethyl-5-[[(1R)-1-[6-(trifluoromethyl)-2-pyridyl]ethyl]amino]imidazo[4,5-g]phthalazin-2-one] | 912
Cc1nnc(N[C@H](C)c2cccc(C(F)(F)CO)c2)c2cc3c(cc12)C(C)(C)C(=O)N3C [Compound 78, 1,3,3,5-tetramethyl-8-[[(1R)-1-[3-(1,1-difluoro-2-hydroxy-ethyl)phenyl]ethyl]amino]pyrrolo [2,3-g]phthalazin-2-one] | 9.55
